The source of these data is paper PMC2822479 (American Journal of Physiology - Endocrinology and …, 2009).

Where a SMILES comes first, the peptide text is derived from it.

The target of this test is human KISS1R (Homo sapiens, UniProt Q969F8). The test is described as follows: Receptor binding assay, competition against [125I]KP-54 in CHO-KISS1R membranes. The following applies: SEM.
human KISS1R, sequence (Q969F8 whole entry): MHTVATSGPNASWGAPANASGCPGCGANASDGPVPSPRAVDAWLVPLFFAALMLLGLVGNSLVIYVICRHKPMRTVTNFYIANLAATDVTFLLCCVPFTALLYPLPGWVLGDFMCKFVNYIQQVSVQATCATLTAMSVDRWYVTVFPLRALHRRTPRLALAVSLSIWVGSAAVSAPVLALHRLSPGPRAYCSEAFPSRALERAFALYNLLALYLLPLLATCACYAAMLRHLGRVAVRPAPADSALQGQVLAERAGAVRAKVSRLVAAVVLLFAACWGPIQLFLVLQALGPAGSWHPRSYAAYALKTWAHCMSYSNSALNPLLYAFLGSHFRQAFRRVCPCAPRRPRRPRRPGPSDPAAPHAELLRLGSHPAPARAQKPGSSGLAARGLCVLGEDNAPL
By IC50 is commonly meant the point on the concentration scale where inhibition reaches its midpoint. A higher IC50 goes with a need for much substance. Regarding `CC(C)C[C@H](NC(=O)CNC(=O)[C@H](Cc1ccccc1)NC(=O)[C@@H](NC(=O)[C@H](CC(N)=O)NC(=O)[C@H](Cc1c[nH]c2ccccc12)NC(=O)[C@H](CC(N)=O)NC(=O)[C@@H](N)Cc1ccc(O)cc1)[C@@H](C)O)C(=O)N[C@@H](CCCNC(=N)N)C(=O)N[C@@H](Cc1ccccc1)C(N)=O` [ANA14] (H-YNWNTFGLRF-NH2), the IC50 amounted to 0.0023 µM.
With `CC(C)C[C@H](NC(=O)CNC(=O)[C@H](Cc1ccccc1)NC(=O)[C@H](CO)NC(=O)[C@H](CC(N)=O)NC(=O)[C@H](Cc1c[nH]c2ccccc12)NC(=O)[C@H](CC(N)=O)NC(=O)[C@H](N)Cc1ccc(O)cc1)C(=O)N[C@@H](CCCNC(=N)N)C(=O)N[C@@H](Cc1ccccc1)C(N)=O` [ANA19] the figure was 0.0036 µM.
To `CC(C)C[C@H](NC(=O)CNC(=O)[C@H](Cc1ccc(O)cc1)NC(=O)[C@H](CO)NC(=O)[C@H](CC(N)=O)NC(=O)[C@H](Cc1c[nH]c2ccccc12)NC(=O)[C@H](CC(N)=O)NC(=O)[C@@H](N)Cc1ccc(O)cc1)C(=O)N[C@@H](CCCNC(=N)N)C(=O)N[C@@H](Cc1ccccc1)C(N)=O` [ANA15] (H-YNWNSYGLRF-NH2) belongs 0.0875 µM; to `CC(C)C[C@H](NC(=O)CNC(=O)[C@H](Cc1ccccc1)NC(=O)[C@H](CO)NC(=O)[C@H](CC(N)=O)NC(=O)[C@H](Cc1c[nH]c2ccccc12)NC(=O)[C@H](CC(N)=O)NC(=O)[C@@H](N)Cc1ccc(O)cc1)C(=O)N[C@@H](CCCNC(=N)N)C(=O)N[C@H](Cc1ccccc1)C(N)=O` [ANA21], 0.447 µM.
`C[C@H](NC(=O)CNC(=O)[C@H](Cc1ccccc1)NC(=O)[C@H](CO)NC(=O)[C@H](CC(N)=O)NC(=O)[C@H](Cc1c[nH]c2ccccc12)NC(=O)[C@H](CC(N)=O)NC(=O)[C@@H](N)Cc1ccc(O)cc1)C(=O)N[C@@H](CCCNC(=N)N)C(=O)N[C@@H](Cc1ccccc1)C(N)=O` [ANA8] (H-YNWNSFGARF-NH2) had an IC50 of 0.0774 µM.
To `CC(C)C[C@H](NC(=O)CNC(=O)[C@H](Cc1ccccc1)NC(=O)[C@H](CO)NC(=O)[C@H](CC(N)=O)NC(=O)[C@H](Cc1c[nH]c2ccccc12)NC(=O)[C@H](CC(N)=O)NC(=O)[C@@H](N)Cc1ccc(O)cc1)C(=O)N[C@@H](CCCNC(=N)N)C(=O)N[C@@H](Cc1ccccc1)C(N)=O` [KP-10, kisspeptin-10, reference compound] belongs 0.001 µM.
To `CC(C)C[C@H](NC(=O)CNC(=O)[C@H](Cc1ccccc1)NC(=O)[C@H](CO)NC(=O)[C@H](CC(N)=O)NC(=O)[C@H](Cc1c[nH]c2ccccc12)NC(=O)[C@H](CC(N)=O)NC(=O)[C@@H](N)Cc1ccc(O)cc1)C(=O)N[C@@H](CCCNC(=N)N)C(=O)N[C@@H](Cc1c[nH]cn1)C(N)=O` [ANA18] (H-YNWNSFGLRH-NH2) belongs 0.378 µM.
To `CC(C)C[C@H](NC(=O)CNC(=O)[C@H](Cc1ccccc1)NC(=O)[C@H](CO)NC(=O)[C@H](CC(N)=O)NC(=O)[C@H](Cc1c[nH]c2ccccc12)NC(=O)[C@H](CC(N)=O)NC(=O)[C@H](C)N)C(=O)N[C@@H](CCCNC(=N)N)C(=O)N[C@@H](Cc1ccccc1)C(N)=O` [ANA1] (H-ANWNSFGLRF-NH2) belongs 0.0232 µM; to `CC(C)C[C@H](NC(=O)[C@H](C)NC(=O)[C@H](Cc1ccccc1)NC(=O)[C@H](CO)NC(=O)[C@H](CC(N)=O)NC(=O)[C@H](Cc1c[nH]c2ccccc12)NC(=O)[C@H](CC(N)=O)NC(=O)[C@@H](N)Cc1ccc(O)cc1)C(=O)N[C@@H](CCCNC(=N)N)C(=O)N[C@@H](Cc1ccccc1)C(N)=O` [ANA7] (H-YNWNSFALRF-NH2), 0.0046 µM.
Turning to `CC(C)C[C@H](NC(=O)CNC(=O)[C@H](Cc1ccccc1)NC(=O)[C@H](CO)NC(=O)[C@H](CC(N)=O)NC(=O)[C@H](Cc1c[nH]c2ccccc12)NC(=O)[C@H](C)NC(=O)[C@@H](N)Cc1ccc(O)cc1)C(=O)N[C@@H](CCCNC(=N)N)C(=O)N[C@@H](Cc1ccccc1)C(N)=O` [ANA2] (H-YAWNSFGLRF-NH2), the IC50 was found to be 0.145 µM.
`CC(C)C[C@H](NC(=O)CNC(=O)[C@H](Cc1ccccc1)NC(=O)[C@H](CO)NC(=O)[C@H](C)NC(=O)[C@H](Cc1c[nH]c2ccccc12)NC(=O)[C@H](CC(N)=O)NC(=O)[C@@H](N)Cc1ccc(O)cc1)C(=O)N[C@@H](CCCNC(=N)N)C(=O)N[C@@H](Cc1ccccc1)C(N)=O` [ANA4] (H-YNWASFGLRF-NH2) came in with an IC50 of 0.0435 µM. Against the preceding compound, the IC50 is about 3.3-fold lower.
To `CC(C)C[C@H](NC(=O)CNC(=O)[C@@H](Cc1ccccc1)NC(=O)[C@H](CO)NC(=O)[C@H](CC(N)=O)NC(=O)[C@H](Cc1c[nH]c2ccccc12)NC(=O)[C@H](CC(N)=O)NC(=O)[C@@H](N)Cc1ccc(O)cc1)C(=O)N[C@@H](CCCNC(=N)N)C(=O)N[C@@H](Cc1ccccc1)C(N)=O` [ANA20] belongs 0.253 µM; to `CC(C)C[C@H](NC(=O)CNC(=O)[C@H](Cc1ccccc1)NC(=O)[C@H](CO)NC(=O)[C@H](CC(=O)O)NC(=O)[C@H](Cc1c[nH]c2ccccc12)NC(=O)[C@H](CC(N)=O)NC(=O)[C@@H](N)Cc1ccc(O)cc1)C(=O)N[C@@H](CCCNC(=N)N)C(=O)N[C@@H](Cc1ccccc1)C(N)=O` [ANA13] (H-YNWDSFGLRF-NH2), 0.14 µM; to `CC(C)C[C@H](NC(=O)CNC(=O)[C@H](Cc1ccccc1)NC(=O)[C@H](CO)NC(=O)[C@H](CC(N)=O)NC(=O)[C@H](Cc1c[nH]c2ccccc12)NC(=O)[C@H](CC(N)=O)NC(=O)[C@@H](N)Cc1ccc(O)cc1)C(=O)N[C@@H](CCCCN)C(=O)N[C@@H](Cc1ccccc1)C(N)=O` [ANA17] (H-YNWNSFGLKF-NH2), 0.0098 µM.
With `CC(C)C[C@H](NC(=O)CNC(=O)[C@H](Cc1ccccc1)NC(=O)[C@H](CO)NC(=O)[C@H](CC(N)=O)NC(=O)[C@H](Cc1c[nH]c2ccccc12)NC(=O)[C@H](CC(=O)O)NC(=O)[C@@H](N)Cc1ccc(O)cc1)C(=O)N[C@@H](CCCNC(=N)N)C(=O)N[C@@H](Cc1ccccc1)C(N)=O` [ANA12] (H-YDWNSFGLRF-NH2) the figure was 0.0291 µM; with `CC(C)C[C@H](NC(=O)CNC(=O)[C@H](Cc1ccccc1)NC(=O)[C@H](C)NC(=O)[C@H](CC(N)=O)NC(=O)[C@H](Cc1c[nH]c2ccccc12)NC(=O)[C@H](CC(N)=O)NC(=O)[C@@H](N)Cc1ccc(O)cc1)C(=O)N[C@@H](CCCNC(=N)N)C(=O)N[C@@H](Cc1ccccc1)C(N)=O` [ANA5] (H-YNWNAFGLRF-NH2), 0.0008 µM; with `CC(C)C[C@H](NC(=O)CNC(=O)[C@H](C)NC(=O)[C@H](CO)NC(=O)[C@H](CC(N)=O)NC(=O)[C@H](Cc1c[nH]c2ccccc12)NC(=O)[C@H](CC(N)=O)NC(=O)[C@@H](N)Cc1ccc(O)cc1)C(=O)N[C@@H](CCCNC(=N)N)C(=O)N[C@@H](Cc1ccccc1)C(N)=O` [ANA6] (H-YNWNSAGLRF-NH2), 0.11 µM.
With `CC(C)C[C@H](NC(=O)CNC(=O)[C@H](Cc1ccccc1)NC(=O)[C@H](CO)NC(=O)[C@H](CC(N)=O)NC(=O)[C@H](Cc1c[nH]c2ccccc12)NC(=O)[C@H](CC(N)=O)NC(=O)[C@@H](N)Cc1ccc(O)cc1)C(=O)N[C@@H](C)C(=O)N[C@@H](Cc1ccccc1)C(N)=O` [ANA9] (H-YNWNSFGLAF-NH2) the figure was 0.0423 µM; with `CC(C)C[C@H](NC(=O)CNC(=O)[C@H](Cc1ccccc1)NC(=O)[C@H](CO)NC(=O)[C@H](CC(N)=O)NC(=O)[C@H](C)NC(=O)[C@H](CC(N)=O)NC(=O)[C@@H](N)Cc1ccc(O)cc1)C(=O)N[C@@H](CCCNC(=N)N)C(=O)N[C@@H](Cc1ccccc1)C(N)=O` [ANA3] (H-YNANSFGLRF-NH2), 0.0027 µM.
Take `CC[C@H](C)[C@H](NC(=O)CNC(=O)[C@H](Cc1ccccc1)NC(=O)[C@H](CO)NC(=O)[C@H](CC(N)=O)NC(=O)[C@H](Cc1c[nH]c2ccccc12)NC(=O)[C@H](CC(N)=O)NC(=O)[C@@H](N)Cc1ccc(O)cc1)C(=O)N[C@@H](CCCNC(=N)N)C(=O)N[C@@H](Cc1ccccc1)C(N)=O` [ANA16] (H-YNWNSFGIRF-NH2): the IC50 turned out to be 0.0399 µM.
Take `CC(C)C[C@H](NC(=O)CNC(=O)[C@H](Cc1ccccc1)NC(=O)[C@H](CO)NC(=O)[C@H](CC(N)=O)NC(=O)[C@H](Cc1c[nH]c2ccccc12)NC(=O)[C@H](CC(N)=O)NC(=O)[C@@H](N)Cc1ccccc1)C(=O)N[C@@H](CCCNC(=N)N)C(=O)N[C@@H](Cc1ccccc1)C(N)=O` [ANA11] (H-FNWNSFGLRF-NH2): the IC50 was determined as 0.0035 µM. Compared with the last compound, the IC50 is about 11-fold lower.
